Assay results published in US6355799B1, “Substituted benzene compounds, process for their preparation, and herbicidal and defoliant compositions containing them” (ISK Americas Incorporated, priority 1997, dated 2002).

How the values were obtained:
Assay type in all cases: in vivo
[1] = system: redroot pigweed (Amaranthus retroflexus, AMARE); assay: Pre-emerge test, greenhouse herbicide activity screening; conditions: pre-emerge; for Pre-emerge Herbicidal Activity AMARE: phytotoxicity rating 0-100 at 14 days after application; for phytotoxicity rating AMARE: 14 days after application, rating scale 0-100
How it was run: (§1)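 Compounds in acetone were track-sprayed at 187 l/ha, 15–1000 g ai/ha, onto sandy loam pots. Pre-emerge seeds were sown one day before spraying, with surface watering afterwards. Post-emerge plants were at the 2–3 leaf stage and sprayed with 0.25% v/v non-ionic surfactant. Injury was rated 0–100 at 14 days.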

[2] = system: barnyardgrass (Echinochloa crus-galli, ECHCG); assay: as above; conditions: pre-emerge; for Pre-emerge Herbicidal Activity ECHCG: phytotoxicity rating 0-100 at 14 days after application; for phytotoxicity rating ECHCG: 14 days after application, rating scale 0-100
How it was run: (§2)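 Herbicidal damage is scored 0 (none) to 100 (complete plant death) two weeks after a simulated field spray. Rates span 15–1000 g ai/ha, delivered in acetone at 187 l/ha. For post-emergence treatments, plants have 2–3 leaves and the spray carries 0.25% v/v non-ionic surfactant.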

[3] = system: green foxtail (Setaria viridis, SETVI); assay: as above; conditions: pre-emerge; for Pre-emerge Herbicidal Activity SETVI: phytotoxicity rating 0-100 at 14 days after application; for phytotoxicity rating SETVI: 14 days after application, rating scale 0-100
How it was run: as §2

[4] = system: ivyleaf morningglory (Ipomoea hederacea, IPOHE); assay: as above; conditions: pre-emerge; for Pre-emerge Herbicidal Activity IPOHE: phytotoxicity rating 0-100 at 14 days after application; for phytotoxicity rating IPOHE: 14 days after application, rating scale 0-100
How it was run: as §2

[5] = system: lambsquarters (Chenopodium album, CHEAL); assay: as above; conditions: pre-emerge; for Pre-emerge Herbicidal Activity CHEAL: phytotoxicity rating 0-100 at 14 days after application; for phytotoxicity rating CHEAL: 14 days after application, rating scale 0-100
How it was run: as §2

[6] = system: large crabgrass (Digitaria sanguinalis, DIGSA); assay: as above; conditions: pre-emerge; for Pre-emerge Herbicidal Activity DIGSA: phytotoxicity rating 0-100 at 14 days after application; for phytotoxicity rating DIGSA: 14 days after application, rating scale 0-100
How it was run: as §2

[7] = system: sicklepod (Cassia obtusifolia, CASOB); assay: as above; conditions: pre-emerge; for Pre-emerge Herbicidal Activity CASOB: phytotoxicity rating 0-100 at 14 days after application; for phytotoxicity rating CASOB: 14 days after application, rating scale 0-100
How it was run: as §2

[8] = system: velvetleaf (Abutilon theophrasti, ABUTH); assay: as above; conditions: pre-emerge; for Pre-emerge Herbicidal Activity ABUTH: phytotoxicity rating 0-100 at 14 days after application; for phytotoxicity rating ABUTH: 14 days after application, rating scale 0-100
How it was run: as §2

[9] = system: field corn (Zea mays L., var. Dekalb 535, CORN); assay: Pre-emerge test, crop safety; conditions: pre-emerge; for Pre-emerge Herbicidal Activity CORN: crop damage, phytotoxicity rating 0-100 at 14 days after application; for phytotoxicity rating CORN: 14 days after application, rating scale 0-100
How it was run: as §1

[10] = system: upland rice (Oryza sp., var. Tebonnet, RICE); assay: Pre-emerge test, crop safety; conditions: pre-emerge; for Pre-emerge Herbicidal Activity RICE: crop damage, phytotoxicity rating 0-100 at 14 days after application; for phytotoxicity rating RICE: 14 days after application, rating scale 0-100
How it was run: as §1

[11] = system: barnyardgrass (Echinochloa crus-galli, ECHCG); assay: Post-emerge test, greenhouse herbicide activity screening; conditions: post-emerge; for Post-emerge Herbicidal Activity ECHCG: phytotoxicity rating 0-100 at 14 days after application; for Post-emerge Herbicidal Activity ECHCG (phytotoxicity rating): 14 days after application, rating scale 0-100
How it was run: (§3)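 Compounds in acetone were track-sprayed at 15-1000 g ai/ha (187 l/ha) on sandy loam pots: pre-emerge one day after seeding, post-emerge at 2-3 leaf stage with 0.25% v/v non-ionic surfactant. Phytotoxicity was rated 14 days later on a 0 (no damage) to 100 (complete death) scale.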

[12] = system: green foxtail (Setaria viridis, SETVI); assay: as above; conditions: post-emerge; for Post-emerge Herbicidal Activity SETVI: phytotoxicity rating 0-100 at 14 days after application; for Post-emerge Herbicidal Activity SETVI (phytotoxicity rating): 14 days after application, rating scale 0-100
How it was run: as §3

[13] = system: ivyleaf morningglory (Ipomoea hederacea, IPOHE); assay: as above; conditions: post-emerge; for Post-emerge Herbicidal Activity IPOHE: phytotoxicity rating 0-100 at 14 days after application; for Post-emerge Herbicidal Activity IPOHE (phytotoxicity rating): 14 days after application, rating scale 0-100
How it was run: as §3

[14] = system: lambsquarters (Chenopodium album, CHEAL); assay: as above; conditions: post-emerge; for Post-emerge Herbicidal Activity CHEAL: phytotoxicity rating 0-100 at 14 days after application; for Post-emerge Herbicidal Activity CHEAL (phytotoxicity rating): 14 days after application, rating scale 0-100
How it was run: as §3

[15] = system: large crabgrass (Digitaria sanguinalis, DIGSA); assay: as above; conditions: post-emerge; for Post-emerge Herbicidal Activity DIGSA: phytotoxicity rating 0-100 at 14 days after application; for Post-emerge Herbicidal Activity DIGSA (phytotoxicity rating): 14 days after application, rating scale 0-100
How it was run: as §3

[16] = system: redroot pigweed (Amaranthus retroflexus, AMARE); assay: as above; conditions: post-emerge; for Post-emerge Herbicidal Activity AMARE: phytotoxicity rating 0-100 at 14 days after application; for Post-emerge Herbicidal Activity AMARE (phytotoxicity rating): 14 days after application
How it was run: as §3

[17] = system: sicklepod (Cassia obtusifolia, CASOB); assay: as above; conditions: post-emerge; for Post-emerge Herbicidal Activity CASOB: phytotoxicity rating 0-100 at 14 days after application; for Post-emerge Herbicidal Activity CASOB (phytotoxicity rating): 14 days after application, rating scale 0-100
How it was run: as §3

[18] = system: velvetleaf (Abutilon theophrasti, ABUTH); assay: as above; conditions: post-emerge; for Post-emerge Herbicidal Activity ABUTH: phytotoxicity rating 0-100 at 14 days after application; for Post-emerge Herbicidal Activity ABUTH (phytotoxicity rating): 14 days after application, rating scale 0-100
How it was run: as §3

[19] = system: field corn (Zea mays L., var. Dekalb 535, CORN); assay: Post-emerge test, crop safety; conditions: post-emerge; for Post-emerge Herbicidal Activity CORN: crop damage rating 0-100 at 14 days after application; for Post-emerge Herbicidal Activity CORN (crop damage rating): 14 days after application, rating scale 0-100
How it was run: as §2

[20] = system: upland rice (Oryza sp., var. Tebonnet, RICE); assay: Post-emerge test, crop safety; conditions: post-emerge; for Post-emerge Herbicidal Activity RICE: crop damage rating 0-100 at 14 days after application; for Post-emerge Herbicidal Activity RICE (crop damage rating): 14 days after application, rating scale 0-100
How it was run: as §2

Cc1c(Cl)cc(F)c(-n2c(=O)cc(C(F)(F)F)n(C)c2=O)c1NC(=O)OCc1ccco1 [4-70]
Pre-emerge Herbicidal Activity AMARE ([1]; rate 63 g ai/ha): 100
Pre-emerge Herbicidal Activity AMARE ([1]; rate 250 g ai/ha): 100
Pre-emerge Herbicidal Activity ECHCG ([2]; rate 63 g ai/ha): 40
Pre-emerge Herbicidal Activity ECHCG ([2]; rate 250 g ai/ha): 95
Pre-emerge Herbicidal Activity SETVI ([3]; rate 63 g ai/ha): 60
Pre-emerge Herbicidal Activity SETVI ([3]; rate 250 g ai/ha): 100
Pre-emerge Herbicidal Activity IPOHE ([4]; rate 63 g ai/ha): 100
Pre-emerge Herbicidal Activity IPOHE ([4]; rate 250 g ai/ha): 100
Pre-emerge Herbicidal Activity CHEAL ([5]; rate 63 g ai/ha): 100
Pre-emerge Herbicidal Activity CHEAL ([5]; rate 250 g ai/ha): 100
Pre-emerge Herbicidal Activity DIGSA ([6]; rate 63 g ai/ha): 60
Pre-emerge Herbicidal Activity DIGSA ([6]; rate 250 g ai/ha): 100
Pre-emerge Herbicidal Activity CASOB ([7]; rate 63 g ai/ha): 50
Pre-emerge Herbicidal Activity CASOB ([7]; rate 250 g ai/ha): 80
Pre-emerge Herbicidal Activity ABUTH ([8]; rate 63 g ai/ha): 100
Pre-emerge Herbicidal Activity ABUTH ([8]; rate 250 g ai/ha): 100
Pre-emerge Herbicidal Activity CORN ([9]; rate 63 g ai/ha): 90
Pre-emerge Herbicidal Activity CORN ([9]; rate 250 g ai/ha): 95
Pre-emerge Herbicidal Activity RICE ([10]; rate 63 g ai/ha): 40
Pre-emerge Herbicidal Activity RICE ([10]; rate 250 g ai/ha): 70
Post-emerge Herbicidal Activity ECHCG ([11]; 63 g ai/ha): 40
Post-emerge Herbicidal Activity ECHCG ([11]; 250 g ai/ha): 80
Post-emerge Herbicidal Activity SETVI ([12]; 63 g ai/ha): 60
Post-emerge Herbicidal Activity SETVI ([12]; 250 g ai/ha): 95
Post-emerge Herbicidal Activity IPOHE ([13]; 63 g ai/ha): 100
Post-emerge Herbicidal Activity IPOHE ([13]; 250 g ai/ha): 100
Post-emerge Herbicidal Activity CHEAL ([14]; 63 g ai/ha): 90
Post-emerge Herbicidal Activity CHEAL ([14]; 250 g ai/ha): 100
Post-emerge Herbicidal Activity DIGSA ([15]; 63 g ai/ha): 30
Post-emerge Herbicidal Activity DIGSA ([15]; 250 g ai/ha): 70
Post-emerge Herbicidal Activity AMARE ([16]; 63 g ai/ha): 90
Post-emerge Herbicidal Activity AMARE ([16]; 250 g ai/ha): 100
Post-emerge Herbicidal Activity CASOB ([17]; 63 g ai/ha): 60
Post-emerge Herbicidal Activity CASOB ([17]; 250 g ai/ha): 90
Post-emerge Herbicidal Activity ABUTH ([18]; 63 g ai/ha): 100
Post-emerge Herbicidal Activity ABUTH ([18]; 250 g ai/ha): 100
Post-emerge Herbicidal Activity CORN ([19]; 63 g ai/ha): 40
Post-emerge Herbicidal Activity CORN ([19]; 250 g ai/ha): 90
Post-emerge Herbicidal Activity RICE ([20]; 63 g ai/ha): 30
Post-emerge Herbicidal Activity RICE ([20]; 250 g ai/ha): 70

COc1c(Cl)cc(F)c(-n2c(=O)cc(C(F)(F)F)n(C)c2=O)c1NN=Cc1ccc2ccccc2c1 [15-22]
phytotoxicity rating AMARE ([1]; 63 g ai/ha): 100
phytotoxicity rating AMARE ([1]; 250 g ai/ha): 100
phytotoxicity rating ECHCG ([2]; 63 g ai/ha): 60
phytotoxicity rating ECHCG ([2]; 250 g ai/ha): 100
phytotoxicity rating SETVI ([3]; 63 g ai/ha): 90
phytotoxicity rating SETVI ([3]; 250 g ai/ha): 100
phytotoxicity rating IPOHE ([4]; 63 g ai/ha): 50
phytotoxicity rating IPOHE ([4]; 250 g ai/ha): 100
phytotoxicity rating CHEAL ([5]; 63 g ai/ha): 100
phytotoxicity rating CHEAL ([5]; 250 g ai/ha): 100
phytotoxicity rating DIGSA ([6]; 63 g ai/ha): 100
phytotoxicity rating DIGSA ([6]; 250 g ai/ha): 100
phytotoxicity rating CASOB ([7]; 63 g ai/ha): 100
phytotoxicity rating CASOB ([7]; 250 g ai/ha): 100
phytotoxicity rating ABUTH ([8]; 63 g ai/ha): 100
phytotoxicity rating ABUTH ([8]; 250 g ai/ha): 100
phytotoxicity rating CORN ([9]; 63 g ai/ha): 25
phytotoxicity rating CORN ([9]; 250 g ai/ha): 95
phytotoxicity rating RICE ([10]; 63 g ai/ha): 30
phytotoxicity rating RICE ([10]; 250 g ai/ha): 99
Post-emerge Herbicidal Activity ECHCG (phytotoxicity rating) ([11]; 63 g ai/ha): 40
Post-emerge Herbicidal Activity ECHCG (phytotoxicity rating) ([11]; 250 g ai/ha): 100
Post-emerge Herbicidal Activity SETVI (phytotoxicity rating) ([12]; 63 g ai/ha): 40
Post-emerge Herbicidal Activity SETVI (phytotoxicity rating) ([12]; 250 g ai/ha): 95
Post-emerge Herbicidal Activity IPOHE (phytotoxicity rating) ([13]; 63 g ai/ha): 100
Post-emerge Herbicidal Activity IPOHE (phytotoxicity rating) ([13]; 250 g ai/ha): 100
Post-emerge Herbicidal Activity CHEAL (phytotoxicity rating) ([14]; 63 g ai/ha): 100
Post-emerge Herbicidal Activity CHEAL (phytotoxicity rating) ([14]; 250 g ai/ha): 100
Post-emerge Herbicidal Activity DIGSA (phytotoxicity rating) ([15]; 63 g ai/ha): 30
Post-emerge Herbicidal Activity DIGSA (phytotoxicity rating) ([15]; 250 g ai/ha): 90
Post-emerge Herbicidal Activity AMARE (phytotoxicity rating) ([16]; 63 g ai/ha, rating scale 0-100 (0 no damage, 100 complete death)): 100
Post-emerge Herbicidal Activity AMARE (phytotoxicity rating) ([16]; 250 g ai/ha, rating scale 0-100): 100
Post-emerge Herbicidal Activity CASOB (phytotoxicity rating) ([17]; 63 g ai/ha): 70
Post-emerge Herbicidal Activity CASOB (phytotoxicity rating) ([17]; 250 g ai/ha): 100
Post-emerge Herbicidal Activity ABUTH (phytotoxicity rating) ([18]; 63 g ai/ha): 100
Post-emerge Herbicidal Activity ABUTH (phytotoxicity rating) ([18]; 250 g ai/ha): 100
Post-emerge Herbicidal Activity CORN (crop damage rating) ([19]; 63 g ai/ha): 30
Post-emerge Herbicidal Activity CORN (crop damage rating) ([19]; 250 g ai/ha): 90
Post-emerge Herbicidal Activity RICE (crop damage rating) ([20]; 63 g ai/ha): 50
Post-emerge Herbicidal Activity RICE (crop damage rating) ([20]; 250 g ai/ha): 90
